Literature values as cited in patent US8716300B2, “Frequency modulated drug delivery (FMDD)” (Synthonics, Inc., priority 2008, dated 2014).

Columns and labels:
[1] = system: reserpinized rats; conditions: remacemide 5 mg/kg administered with lowest effective dose of levodopa (75 mg/kg)
[2] = system: MES induced seizures; conditions: combined treatment of dizocilpine with valproate

CC(Cc1ccccc1)(NC(=O)CN)c1ccccc1 (stereo not drawn) [remacemide]
increase in horizontal motor activity over levodopa given alone [1]: 9 fold

C[C@]12N[C@H](Cc3ccccc31)c1ccccc12 [dizocilpine]
protection against MES induced seizures [2]: 50% | reduction in the ED50 of valproate ([2]; MES induced seizures): ~3 fold
